Read-outs that look alike come from different tables or passages of the source.
Key:
Mnk1 [1] = assay: Cellular inhibition of Mnk1, flow cytometry of phospho-eIF-4E (Ser209), MV4-11 cells; assay type: cell-based
Procedure: (§1) To evaluate inhibition of Mnk1 in cells, we utilized a flow cytometry-based assay based on activation of eIF-4E, the downstream target of Mnk1. The assay utilizes flow cytometry to quantitatively measure the amount of eIF-4E that is phosphorylated at residue Ser209 in cell lysate from U937 or MV4-11 cell lines. Cells grown in the presence of serum were treated with vehicle or test compounds across a range of concentrations. Levels of phospho-eIF-4E were measured and IC50 values were determined by logistic regression to quantify the potency of each compound.

Mnk1 [2] = assay: Cellular inhibition of Mnk1, flow cytometry of phospho-eIF-4E (Ser209), U937 cells; assay type: cell-based
Procedure: as §1

Mnk1 [3] = biological target: T1, Mnk1 (Homo sapiens (Human), UniProt Q9BUB5); assay: Mnk1 kinase inhibition, ADP-Glo ADP monitoring assay; assay type: biochemical
Target sequence in this assay (Q9BUB5 whole entry): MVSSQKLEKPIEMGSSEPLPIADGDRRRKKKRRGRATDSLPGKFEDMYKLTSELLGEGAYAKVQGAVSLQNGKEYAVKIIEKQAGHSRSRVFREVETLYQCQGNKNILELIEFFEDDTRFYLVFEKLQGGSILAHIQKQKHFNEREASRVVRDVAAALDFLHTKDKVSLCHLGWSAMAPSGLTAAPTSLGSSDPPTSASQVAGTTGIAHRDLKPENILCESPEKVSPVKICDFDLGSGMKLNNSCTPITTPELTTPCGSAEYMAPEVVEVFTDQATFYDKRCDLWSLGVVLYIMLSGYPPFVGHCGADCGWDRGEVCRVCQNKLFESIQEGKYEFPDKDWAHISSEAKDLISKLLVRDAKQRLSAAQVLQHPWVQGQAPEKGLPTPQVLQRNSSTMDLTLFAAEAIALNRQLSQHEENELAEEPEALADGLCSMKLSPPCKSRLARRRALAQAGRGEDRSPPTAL
Procedure: (§2) The synthesized compounds then were tested for inhibition of the kinase activity (IC50) of Mnk1 and/or Mnk2 using the ADP monitoring assay for kinases described in Zegzouti, H.; Zdanovskaia, M.; Hsiao, K.; Goueli, S. A., ADP-Glo: A Bioluminescent and homogeneous ADP monitoring assay for kinases.

MV4-11 cells = assay: Cell viability assay (CellTiter-Glo), MV4-11; assay type: cell-based; conditions: Homo sapiens
Procedure: (§3) To measure the ability of the new Mnk1/2 inhibitors to kill cancer cells in vitro, U937 or MV4-11 cells were incubated with different concentrations of test compounds and analyzed for apoptosis and cell viability at 5 and 24 hours post-treatment.

U937 cells = assay: Cell viability assay (CellTiter-Glo), U937; assay type: cell-based; conditions: Homo sapiens
Procedure: as §3

Mnk2 = Mnk2 (Homo sapiens (Human), UniProt Q9HBH9); assay: Mnk2 kinase inhibition, ADP-Glo ADP monitoring assay; assay type: biochemical
Procedure: as §2

Mnk1 [4] = biological target: T1, Mnk1; assay: Cellular inhibition of Mnk1, flow cytometry of phospho-eIF-4E (Ser209), MV4-11 cells; assay type: cell-based; conditions: phospho-eIF-4E Ser209, flow cytometry, read-out: MV4-11 pEIF4E IC50
Target sequence in this assay (Q9BUB5 whole entry, looked up): as the sequence (Q9BUB5 whole entry) above
Procedure: as §1

Mnk1 [5] = biological target: T1, Mnk1; assay: Cellular inhibition of Mnk1, flow cytometry of phospho-eIF-4E (Ser209), U937 cells; assay type: cell-based; conditions: phospho-eIF-4E Ser209, flow cytometry, read-out: U937 pEIF4E IC50
Target sequence in this assay (Q9BUB5 whole entry, looked up): as the sequence (Q9BUB5 whole entry) above
Procedure: as §1

[6] = read-out: MV4-11 pEIF4E IC50, phospho-eIF-4E Ser209, flow cytometry
[7] = read-out: U937 pEIF4E IC50, phospho-eIF-4E Ser209, flow cytometry
[8] = MV4-11 cells, ATP levels with CellTiter-Glo, read-out: MV4-11 viability EC50
[9] = U-937, U937 cells, ATP levels with CellTiter-Glo, read-out: U937 viability EC50
[10] = ADP-Glo kinase assay, read-out: Mnk2 IC50
[11] = MV4-11, read-out: MV4-11 viability EC50
[12] = U-937, read-out: U937 viability EC50
[13] = read-out: MV4-11 pEIF4E cellular flow IC50 (+,++,+++), flow cytometry
[14] = ADP-Glo kinase assay, read-out: Mnk2 inhibition IC50 (+,++,+++)
[15] = read-out: Mnk1 inhibition IC50 (+,++,+++)
[16] = read-out: U937 pEIF4E cellular flow IC50 (+,++,+++), flow cytometry

Sequence of Mnk2 (Q9HBH9 whole entry): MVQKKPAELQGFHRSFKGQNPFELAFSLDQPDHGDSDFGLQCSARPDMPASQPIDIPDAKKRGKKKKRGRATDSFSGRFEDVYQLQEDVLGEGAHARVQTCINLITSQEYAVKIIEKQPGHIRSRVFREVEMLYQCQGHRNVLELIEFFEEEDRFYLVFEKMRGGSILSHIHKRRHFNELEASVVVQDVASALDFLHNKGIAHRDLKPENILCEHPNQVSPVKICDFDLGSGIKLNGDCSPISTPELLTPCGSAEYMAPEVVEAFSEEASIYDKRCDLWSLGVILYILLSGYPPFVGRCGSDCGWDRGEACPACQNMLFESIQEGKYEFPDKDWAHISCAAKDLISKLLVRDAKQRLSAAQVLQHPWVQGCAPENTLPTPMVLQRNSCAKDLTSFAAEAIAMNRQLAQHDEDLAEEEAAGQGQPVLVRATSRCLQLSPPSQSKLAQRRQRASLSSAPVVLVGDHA

| IC50 (Mnk1 [3]; read-out: Mnk1 IC50) | EC50 (MV4-11 cells; [8]) | EC50 (U937 cells; [9]) | IC50 (Mnk2; [10]) | IC50 (Mnk2; [14]) | IC50 (Mnk1 [3]; [15]) | SMILES | other results |
| --- | --- | --- | --- | --- | --- | --- | --- |
| 93 nM | 4500 nM | 10 µM | 28 nM | – | – | FC(F)(F)c1cnc(NCCc2ccncc2)nc1-n1cnc2ccccc21 [NUCC-0176282, 4-(1H-benzo[d]imidazol-1-yl)-N-(2-(pyridin-4-yl)ethyl)-5-(trifluoromethyl)pyrimidin-2-amine] | IC50 (Mnk1 [1]; [6]): 100 nM; IC50 (Mnk1 [2]; [7]): 140 nM |
| – | 410 nM | 2.6 µM | – | – | – | N#Cc1cnc(NCCc2ccncc2)nc1-n1cnc2ccccc21 [NUCC-0176343] | – |
| – | – | – | – | < 1000 nM | < 1000 nM | Clc1cnc(OCCc2ccncc2)nc1-n1cnc2ccccc21 [NUCC-0196254, 1-(5-chloro-2-(2-(pyridin-4-yl)ethoxy)pyrimidin-4-yl)-1H-benzo[d]imidazole] | IC50 (Mnk1 [1]; [13]): < 1000 nM; IC50 (Mnk2; ADP-Glo kinase assay, unit inferred, read-out: Mnk2 IC50): 9.6 nM; IC50 (Mnk1 [3]; unit inferred, read-out: Mnk1 IC50): 54 nM |
| – | – | – | – | < 1000 nM | < 1000 nM | N#Cc1cnc(OCCc2ccncc2)nc1-n1cnc2ccccc21 [NUCC-0200786] | IC50 (Mnk1 [1]; [13]): < 1000 nM; IC50 (Mnk1 [2]; [16]): < 1000 nM |
| – | – | – | – | < 1000 nM | < 1000 nM | N#Cc1cnc(OCCN2CCCC2=O)nc1-n1cnc2ccccc21 [NUCC-0200788] | IC50 (Mnk1 [1]; [13]): < 1000 nM; IC50 (Mnk1 [2]; [16]): < 1000 nM |
| – | – | – | – | < 1000 nM | < 1000 nM | N#Cc1cnc(OCCc2ccccn2)nc1-n1cnc2ccccc21 [NUCC-0200790] | IC50 (Mnk1 [1]; [13]): < 1000 nM; IC50 (Mnk1 [2]; [16]): < 1000 nM |
| – | – | – | – | < 1000 nM | < 1000 nM | N#Cc1cnc(OC2CCOC2)nc1-n1cnc2ccccc21 (stereo not shown) [NUCC-0200792] | IC50 (Mnk1 [1]; [13]): < 1000 nM; IC50 (Mnk1 [2]; [16]): < 1000 nM |
| – | – | – | – | < 1000 nM | < 1000 nM | N#Cc1cnc(OC2CCNC2)nc1-n1cnc2ccccc21 (stereo not shown) [NUCC-0200793] | IC50 (Mnk1 [1]; [13]): < 1000 nM; IC50 (Mnk1 [2]; [16]): < 1000 nM |
| – | – | – | – | < 1000 nM | < 1000 nM | Clc1cnc(OC2CCCOC2)nc1-n1cnc2ccccc21 (stereo not shown) [NUCC-0200803] | IC50 (Mnk1 [1]; [13]): < 1000 nM; IC50 (Mnk1 [2]; [16]): < 1000 nM |
| – | – | – | – | < 1000 nM | < 1000 nM | Clc1cnc(OCCc2ccccn2)nc1-n1cnc2ccccc21 [NUCC-0200807] | IC50 (Mnk1 [1]; [13]): < 1000 nM; IC50 (Mnk1 [2]; [16]): < 1000 nM |
| – | – | – | – | < 1000 nM | < 1000 nM | O=C1CCCN1CCOc1ncc(Cl)c(-n2cnc3ccccc32)n1 [NUCC-0200811] | IC50 (Mnk1 [1]; [13]): < 1000 nM; IC50 (Mnk1 [2]; [16]): < 1000 nM |
| – | – | – | – | – | 1000 to 10000 nM | NC1CC(Oc2nc(C3CC3)c(Cl)c(-n3cnc4ccccc43)n2)C1 (stereo not shown) [NUCC-0201915, 3-((4-(1H-benzo[d]imidazol-1-yl)-5-chloro-6-cyclopropylpyrimidin-2-yl)oxy)cyclobutanamine] | IC50 (Mnk2): 1000 to 10000 nM |
| – | – | – | – | – | 1000 to 10000 nM | CCc1nc(OC2CC(N)C2)nc(-n2cnc3ccccc32)c1Cl (stereo not shown) [NUCC-0201916] | IC50 (Mnk2): 1000 to 10000 nM |
| – | – | – | – | < 1000 nM | < 1000 nM | CC(C)(COc1ncc(C#N)c(-n2cnc3ccccc32)n1)c1ccnc(F)c1 [NUCC-0201917] | – |
| – | – | – | – | < 1000 nM | < 1000 nM | N#Cc1cnc(OCCc2ccnc(F)c2)nc1-n1cnc2ccccc21 [NUCC-0201918] | – |
| – | – | – | – | – | 1000 to 10000 nM | CC(C)(COc1ncc(Cl)c(OCC(C)(C)c2ccnc(F)c2)n1)c1ccnc(F)c1 [NUCC-0201919] | IC50 (Mnk2): 1000 to 10000 nM |
| – | – | – | – | < 1000 nM | < 1000 nM | CC(C)(COc1nc(-n2cnc3ccccc32)ncc1Cl)c1ccnc(F)c1 [NUCC-0201920] | – |

The next lines start with the compound.

| SMILES | IC50 (Mnk1 [3]; read-out: Mnk1 IC50) | EC50 (MV4-11 cells; [8]) | EC50 (U937 cells; [9]) | IC50 (Mnk2; [10]) | IC50 (Mnk2; [14]) | IC50 (Mnk1 [3]; [15]) | other results |
| --- | --- | --- | --- | --- | --- | --- | --- |
| Clc1cccc(-n2cc(-c3ccnc(NCCc4c[nH]cn4)n3)cn2)c1 [NUCC-0054135] | 6000 nM | 240 nM | 3.4 µM | – | – | – | IC50 (Mnk1 [1]; [6]): 66 nM; IC50 (Mnk1 [2]; [7]): 81 nM |
| CCn1cncc1CNc1nccc(-c2cnn(-c3cccc(OC)c3)c2)n1 [NUCC-0054136] | 10000 nM | 4500 nM | 10 µM | – | – | – | IC50 (Mnk1 [1]; [6]): 100 nM; IC50 (Mnk1 [2]; [7]): 140 nM |
| CN(C)CCNc1nccc(-c2cnn(C)c2)n1 [NUCC-0060898] | 5000 nM | 190 nM | 13 µM | – | – | – | IC50 (Mnk1 [1]; [6]): 35 nM; IC50 (Mnk1 [2]; [7]): 42 nM |
| c1ccc2c(c1)ccn2-c1ccnc(NCCc2ccncc2)n1 [NUCC-0060954] | – | 410 nM | 2.6 µM | – | – | – | – |
| c1ccc2c(c1)ncn2-c1ccnc(NCCc2ccncc2)n1 [NUCC-0060957] | – | 120 nM | 5.3 µM | – | – | – | – |
| c1ccc2c(c1)ccn2-c1ccnc(NCCc2cnc[nH]2)n1 [NUCC-0060958] | 900 nM | – | – | 95 nM | – | – | IC50 (Mnk1 [1]; [6]): 47 nM; IC50 (Mnk1 [2]; [7]): 230 nM |
| c1ccc2c(c1)ncn2-c1ccnc(NC2CCOC2)n1 (stereo not shown) [NUCC-0125583] | – | 620 nM | > 10 µM | 9.5 nM | – | – | – |
| c1ccc2c(c1)ncn2-c1ccnc(Nc2ccncc2)n1 [NUCC-0125585] | 140 nM | 310 nM | 10 µM | – | – | – | IC50 (Mnk1 [1]; [6]): 40 nM; IC50 (Mnk1 [2]; [7]): 51 nM |
| c1ccc2c(c1)ncn2-c1ccnc(NC2CCNC2)n1 (stereo not shown) [NUCC-0125592] | 150 nM | 80 nM | > 10 µM | 40 nM | – | – | IC50 (Mnk1 [1]; [6]): 69 nM; IC50 (Mnk1 [2]; [7]): 1100 nM |
| Clc1cnc(NCCc2cnc[nH]2)nc1-n1cnc2ccccc21 [NUCC-0175695] | 530 nM | 1000 nM | > 10 µM | 72 nM | – | – | IC50 (Mnk1 [1]; [6]): 370 nM; IC50 (Mnk1 [2]; [7]): 630 nM |
| Clc1cnc(NCCc2ccncc2)nc1-n1cnc2ccccc21 [NUCC-0175697] | – | 350 nM | 7 µM | – | – | – | – |
| O[C@@H]1CC[C@H](Nc2nccc(-n3cnc4ccccc43)n2)C1 [NUCC-0176144] | 150 nM | – | – | 28 nM | – | – | IC50 (Mnk1 [4]): 78 nM; IC50 (Mnk1 [5]): 78 nM; EC50 (MV4-11 cells; [11]): 170 nM; EC50 (U937 cells; [12]): 5.7 µM |
| c1ccc2c(c1)ncn2-c1ccnc(N[C@H]2CCOC2)n1 [NUCC-0176148] | – | 440 nM | > 10 µM | 46 nM | – | – | – |
| O[C@H]1CC[C@H](Nc2nccc(-n3cnc4ccccc43)n2)C1 [NUCC-0176163] | 200 nM | – | – | 41 nM | – | – | IC50 (Mnk1 [4]): 74 nM; IC50 (Mnk1 [5]): 75 nM; EC50 (MV4-11 cells; [11]): 220 nM; EC50 (U937 cells; [12]): 8.1 µM |
| O[C@H]1CC[C@@H](Nc2nccc(-n3cnc4ccccc43)n2)C1 [NUCC-0176164] | 100 nM | – | – | 26 nM | – | – | IC50 (Mnk1 [4]): 36 nM; IC50 (Mnk1 [5]): 62 nM; EC50 (MV4-11 cells; [11]): 180 nM; EC50 (U937 cells; [12]): > 10 µM |
| Fc1cnc(NCCc2ccncc2)nc1-n1cnc2ccccc21 [NUCC-0176281] | 330 nM | 240 nM | 3.4 µM | 49 nM | – | – | IC50 (Mnk1 [1]; [6]): 66 nM; IC50 (Mnk1 [2]; [7]): 81 nM |
| c1cncc(CCNc2ccnc(-n3cnc4ccccc43)n2)c1 [NUCC-0176341] | 210 nM | – | – | 26 nM | – | – | IC50 (Mnk1 [4]): 35 nM; IC50 (Mnk1 [5]): 42 nM; EC50 (MV4-11 cells; [11]): 190 nM; EC50 (U937 cells; [12]): 13 µM |
| N#Cc1cnc(OC2CC(N)C2)nc1-n1cnc2ccccc21 (stereo not shown) [NUCC-0200907, 2-(3-aminocyclobutoxy)-4-(1H-benzo[d]imidazol-1-yl)pyrimidine-5-carbonitrile] | – | – | – | – | < 1000 nM | < 1000 nM | IC50 (Mnk1 [1]; [13]): < 1000 nM; IC50 (Mnk1 [2]; [16]): < 1000 nM |
